The values that follow come from patent US11702422B2, “Imidazopyridazines as modulators of IL-17” (Janssen Pharmaceutica NV, priority 2020, dated 2023).

The subject of assay [1] is IL-17A-induced G-CSF production in human normal keratinocyte (NHK). The assay is described as follows: NHK Assay: IL-17A-induced G-CSF production in human normal keratinocytes. The assay is classed as cell-based. Particulars: 24 h, adult normal human keratinocytes, IL-17A 5 ng/mL, simple average if tested more than once. The method in brief: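 Compound is first combined with recombinant human IL-17A for 1 h at rt, and the mix is added to adult normal human keratinocytes so that IL-17A is 5 ng/mL. After 24 h at 37° C in 5% FBS, G-CSF released into the medium is read by HTRF and IC50 derived.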

In assay [2] the target is IL-17A(FLAG-Tagged): IL-17RA(His-Tagged) (Homo sapiens, UniProt Q16552, K93Q). The assay is described as follows: IL-17A(FLAG-Tagged): IL-17RA(His-Tagged) Binding Disruption Eu-HTRF Assay. The settings on record: IL-17A/IL-17RA binding disruption, simple average if tested more than once. The method in brief:
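IC50 comes from a one-site competition fit of the HTRF 665/620 nm ratio. Compound dilutions (2-fold, 22 points) were held 1 h rt with FLAG-tagged IL-17A dimer, then His-tagged IL-17RA plus Eu-cryptate anti-FLAG and D2 anti-His antibodies were added for 2 h rt.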
Background: Time-resolved FRET reads energy transfer from a long-lived donor to a nearby acceptor.

Molecules are shown by their SMILES. A value given as a limit tells only on which side of the number the result lay.

Chain of UniProt Q16552 (Q16552 with tags, fused parts or gaps K93Q): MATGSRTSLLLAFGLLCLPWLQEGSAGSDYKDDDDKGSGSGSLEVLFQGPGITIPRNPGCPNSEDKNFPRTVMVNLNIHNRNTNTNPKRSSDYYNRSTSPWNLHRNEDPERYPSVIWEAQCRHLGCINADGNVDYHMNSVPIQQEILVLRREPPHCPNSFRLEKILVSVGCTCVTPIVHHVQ

Consider `O=C(CCC(F)(F)F)N[C@@H](c1cnn2cc([C@@H](NC(=O)c3cnn(CCC(F)F)n3)C3CCC(F)(F)CC3)nc2c1)C1CC1` [Example 32, N—((S)-(7-((R)-Cyclopropyl(4,4,4-trifluorobutanamido)methyl)imidazo[1,2-b]pyridazin-2-yl)(4,4-difluorocyclohexyl)methyl)-2-(3,3-difluoropropyl)-2H-1,2,3-triazole-4-carboxamide], for which the concentration for half-maximal inhibition (IC50) in assay [1] (Homo sapiens, Keratinocyte) amounted to 240 nM; in assay [2] it was 140 nM.

With `Cc1nonc1C(=O)N[C@H](c1cn2ncc([C@H](NC(=O)[C@H]3CC[C@H]3F)C3CC3)cc2n1)C1CCC(F)(F)CC1` (relative stereo) [Example 336, N—((S)-(7-((R)-Cyclopropyl((1R*,2R*)-2-fluorocyclobutane-1-carboxamido)methyl)imidazo[1,2-b]pyridazin-2-yl)(4,4-difluorocyclohexyl)methyl)-4-methyl-1,2,5-oxadiazole-3-carboxamide], the IC50 in assay [1] (Homo sapiens, Keratinocyte) is more than 20000 nM; in assay [2], 5000 nM.

Regarding `O=C(CCC(F)(F)F)N[C@@H](c1cnn2cc([C@@H](NC(=O)c3ccncc3)C3CCC(F)(F)CC3)nc2c1)C1CC1` [Example 190, N—((S)-(7-((R)-Cyclopropyl(4,4,4-trifluorobutanamido)methyl)imidazo[1,2-b]pyridazin-2-yl)(4,4-difluorocyclohexyl)methyl)isonicotinamide], the IC50 was determined as 820 nM in assay [1] (Homo sapiens, Keratinocyte) and 220 nM in assay [2].

As to `N#Cc1cncc(C(=O)N[C@H](c2cn3ncc([C@H](NC(=O)CCC(F)(F)F)C4CC4)cc3n2)C2CCC(F)(F)CC2)c1` [Example 450, 5-Cyano-N—((S)-(7-((R)-cyclopropyl(4,4,4-trifluorobutanamido)methyl)imidazo[1,2-b]pyridazin-2-yl)(4,4-difluorocyclohexyl)methyl)nicotinamide], the IC50 came to 1700 nM in assay [1] (Homo sapiens, Keratinocyte) and 810 nM in assay [2].

Consider `N#CC1([C@@H](NC(=O)CC2CC(F)(F)C2)c2cnn3cc([C@@H](NC(=O)c4nonc4C4CC4)C4CCC(F)(F)CC4)nc3c2)CCC1` [Example 487, N—((S)-(7-((S)-(1-Cyanocyclobutyl)(2-(3,3-difluorocyclobutyl)acetamido)methyl)imidazo[1,2-b]pyridazin-2-yl)(4,4-difluorocyclohexyl)methyl)-4-cyclopropyl-1,2,5-oxadiazole-3-carboxamide], for which the IC50 was determined as 6 nM in assay [1] (Homo sapiens, Keratinocyte) and 45 nM in assay [2].

As for `CC(C)n1nccc1C(=O)N[C@H](c1cn2ncc(C(NC(=O)CC(C(F)(F)F)C(F)(F)F)C3CC3)cc2n1)C1CCC(F)(F)CC1` (single isomer, unassigned) [Example 11, N-((S)-(7-((S*)-Cyclopropyl(4,4,4-trifluoro-3-(trifluoromethyl)butanamido)methyl)imidazo[1,2-b]pyridazin-2-yl)(4,4-difluorocyclohexyl)methyl)-1-isopropyl-1H-pyrazole-5-carboxamide], the IC50 in assay [1] stood at 1400 nM; in assay [2], 690 nM.

Turning to `Cc1nonc1C(=O)N[C@H](c1cn2ncc([C@H](NC(=O)C(C)CC(F)(F)F)C3CC3)cc2n1)C1CCC(F)(F)CC1` (single isomer, unassigned) [Example 347, N—((S)-(7-((R)-Cyclopropyl((S*)-4,4,4-trifluoro-2-methylbutanamido)methyl)imidazo[1,2-b]pyridazin-2-yl)(4,4-difluorocyclohexyl)methyl)-4-methyl-1,2,5-oxadiazole-3-carboxamide], the IC50 in assay [1] is 1600 nM; in assay [2] it was 470 nM.

Consider `CCc1cnoc1C(=O)N[C@H](c1cn2ncc([C@H](NC(=O)CCC(F)(F)F)C3CC3)cc2n1)C1CCC(F)(F)CC1` [Example 470, N—((S)-(7-((R)-Cyclopropyl(4,4,4-trifluorobutanamido)methyl)imidazo[1,2-b]pyridazin-2-yl)(4,4-difluorocyclohexyl)methyl)-4-ethylisoxazole-5-carboxamide], for which the IC50 in assay [1] (Homo sapiens, Keratinocyte) came to 110 nM; in assay [2], 54 nM.

`Cc1nonc1C(=O)N[C@H](c1cn2ncc([C@H](NC(=O)CC34CC(C3)C4)C3CC3)cc2n1)C1CCC(F)(F)CC1` [Example 249, N—((S)-(7-((R)-(2-(Bicyclo[1.1.1]pentan-1-yl)acetamido)(cyclopropyl)methyl)imidazo[1,2-b]pyridazin-2-yl)(4,4-difluorocyclohexyl)methyl)-4-methyl-1,2,5-oxadiazole-3-carboxamide]: the IC50 in assay [1] (Homo sapiens, Keratinocyte) came to 98 nM; in assay [2], 24 nM.

As to `O=C(CC(C(F)(F)F)C(F)(F)F)NC(c1cnn2cc([C@@H](NC(=O)c3ccccc3)C3CCC(F)(F)CC3)nc2c1)C1CC1` (single isomer, unassigned) [Example 17, N—((S)-(7-((S*)-Cyclopropyl(4,4,4-trifluoro-3-(trifluoromethyl)butanamido)methyl)imidazo[1,2-b]pyridazin-2-yl)(4,4-difluorocyclohexyl)methyl)benzamide], the IC50 was 1200 nM in assay [1] and 1300 nM in assay [2].

As to `CC(C)n1nccc1C(=O)N[C@H](c1cn2ncc([C@H](NC(=O)COC(F)F)C3CC3)cc2n1)C1CCC(F)(F)CC1` [Example 274, N—((S)-(7-((R)-Cyclopropyl(2-(difluoromethoxy)acetamido)methyl)imidazo[1,2-b]pyridazin-2-yl)(4,4-difluorocyclohexyl)methyl)-1-isopropyl-1H-pyrazole-5-carboxamide], the IC50 in assay [1] (Homo sapiens, Keratinocyte) turned out to be 950 nM; in assay [2], 330 nM.

Consider `[2H]C([2H])([2H])n1nccc1C(=O)N[C@H](c1cn2ncc([C@H](NC(=O)CCC(F)F)C3CC3)cc2n1)C1CCC(F)(F)CC1` [Example 283, N—((S)-(7-((R)-Cyclopropyl(4,4-difluorobutanamido)methyl)imidazo[1,2-b]pyridazin-2-yl)(4,4-difluorocyclohexyl)methyl)-1-(methyl-d3)-1H-pyrazole-5-carboxamide], for which the IC50 came out at 690 nM in assay [1] (Homo sapiens, Keratinocyte) and 310 nM in assay [2].

`CC(C)n1nccc1C(=O)N[C@H](c1cn2ncc(C(NC(=O)C(F)(F)CC3CC3)C3(C#N)CC3)cc2n1)C1CCC(F)(F)CC1` (single isomer, unassigned) [Example 437, N—((S)-(7-((R*)-(1-Cyanocyclopropyl)(3-cyclopropyl-2,2-difluoropropanamido)methyl)imidazo[1,2-b]pyridazin-2-yl)(4,4-difluorocyclohexyl)methyl)-1-isopropyl-1H-pyrazole-5-carboxamide]: the IC50 in assay [1] (Homo sapiens, Keratinocyte) was more than 20000 nM; in assay [2], 3800 nM.

Turning to `CC1(C(=O)N[C@H](c2cn3ncc([C@H](NC(=O)CCC(F)(F)F)C4CC4)cc3n2)C2CCC(F)(F)CC2)CC1(F)F` (stereo partly drawn) [Example 148, N—((S)-(7-((R)-Cyclopropyl(4,4,4-trifluorobutanamido)methyl)imidazo[1,2-b]pyridazin-2-yl)(4,4-difluorocyclohexyl)methyl)-2,2-difluoro-1-methylcyclopropane-1-carboxamide], the IC50 in assay [1] (Homo sapiens, Keratinocyte) is 1700 nM; in assay [2], 940 nM.

Turning to `O=C(CCC(F)(F)F)N[C@@H](c1cnn2cc([C@@H](NC(=O)[C@@H]3C[C@H]3CF)C3CCC(F)(F)CC3)nc2c1)C1CC1` (relative stereo) [Example 362, (1R*,2R*)—N—((S)-(7-((R*)-Cyclopropyl(4,4,4-trifluorobutanamido)methyl)imidazo[1,2-b]pyridazin-2-yl)(4,4-difluorocyclohexyl)methyl)-2-(fluoromethyl)cyclopropane-1-carboxamide], the IC50 was more than 20000 nM in assay [1] (Homo sapiens, Keratinocyte) and 4200 nM in assay [2].

Take `[2H]C([2H])([2H])C([2H])([2H])n1nccc1C(=O)N[C@H](c1cn2ncc(C(COC)NC(=O)CC3CC(F)(F)C3)cc2n1)C1CCC(F)(F)CC1` (single isomer, unassigned) [Example 523, N—((S)-(7-((R*)-1-(2-(3,3-Difluorocyclobutyl)acetamido)-2-methoxyethyl)imidazo[1,2-b]pyridazin-2-yl)(4,4-difluorocyclohexyl)methyl)-1-(ethyl-d5)-1H-pyrazole-5-carboxamide]: the IC50 in assay [1] turned out to be 110 nM; in assay [2], 270 nM.

Turning to `O=C(CCC(F)(F)F)N[C@@H](c1cnn2cc([C@@H](NC(=O)c3ccnn3C(F)(F)F)C3CCC(F)(F)CC3)nc2c1)C1CC1` [Example 104, N—((S)-(7-((R)-Cyclopropyl(4,4,4-trifluorobutanamido)methyl)imidazo[1,2-b]pyridazin-2-yl)(4,4-difluorocyclohexyl)methyl)-1-(trifluoromethyl)-1H-pyrazole-5-carboxamide], the IC50 in assay [1] (Homo sapiens, Keratinocyte) amounted to 550 nM; in assay [2], 90 nM.

For `[2H]C([2H])([2H])C([2H])([2H])n1nccc1C(=O)N[C@H](c1cn2ncc([C@H](NC(=O)C[C@H](C)C(F)(F)F)C3CCC3)cc2n1)C1CCC(F)(F)CC1` (relative stereo) [Example 500, N—((S)-(7-((R*)-Cyclobutyl((S*)-4,4,4-trifluoro-3-methylbutanamido)methyl)imidazo[1,2-b]pyridazin-2-yl)(4,4-difluorocyclohexyl)methyl)-1-(ethyl-d5)-1H-pyrazole-5-carboxamide], the IC50 in assay [1] (Homo sapiens, Keratinocyte) is 140 nM; in assay [2], 150 nM.

Regarding `COc1cc(C(=O)N[C@H](c2cn3ncc([C@H](NC(=O)CCC(F)(F)F)C4CC4)cc3n2)C2CCC(F)(F)CC2)ccn1` [Example 184, N—((S)-(7-((R)-Cyclopropyl(4,4,4-trifluorobutanamido)methyl)imidazo[1,2-b]pyridazin-2-yl)(4,4-difluorocyclohexyl)methyl)-2-methoxyisonicotinamide], the IC50 in assay [1] (Homo sapiens, Keratinocyte) is 590 nM; in assay [2], 110 nM.

For orientation: IC50 means the midpoint of a concentration-inhibition curve. Low readings indicate greater potency in that assay, high ones weaker potency in that assay.
